Among the data in patent EP0176369A2, “7-(Alpha-(4-oxo-2-azetidinyl(or -azetidinylalkyl)-oxyimino)-alpha-(2-amino-4-thiazolyl)acetamido]-3- substituted-Delta 3-cephem-4-carboxylic acid compounds and salts thereof, their production, and medicaments containing them” (YAMANOUCHI PHARMACEUTICAL CO. LTD., priority 1984, dated 1986) are MIC values, retold here.

The structures appear in SMILES notation. ≈ marks a conversion by molar mass, not a printed value.

Common to all, as to assay: Antibacterial activity (minimum effective inhibitory concentration)
What all share (assay type): cell-based

Assay [1] deals with Ps. aeruginosa NCTC 10490. Particulars: Pseudomonas aeruginosa, NCTC10490, read-out: minimum effective inhibitory concentrations. From the text:
(§1) Antibacterial activities (minimum effective inhibitory concentrations) of compounds of formula I (taken from the following Examples) are shown in the following Table.

Assay [2] relates to Kleb. pneumoniae ATCC 10031. The conditions noted are these: Klebsiella pneumoniae, ATCC10031, read-out: minimum effective inhibitory concentrations.
Description: as §1

The next assay deals with Sal. enteritidis 1891. Particulars: Salmonella enterica, read-out: minimum effective inhibitory concentrations.
Description: as §1

The test system of assay [3] is Serr. marcescens II D 620. The conditions noted are these: Serratia marcescens, IID620, read-out: minimum effective inhibitory concentrations.
Description: as §1

For assay [4], the system named is Staph. epidermidis IIb 866. The conditions noted are these: Staphylococcus epidermidis, IIB866, read-out: minimum effective inhibitory concentrations.
Description: as §1

`C[N+]1(CC2=C(C(=O)[O-])N3C(=O)C(NC(=O)C(=NOC4CC(=O)N4)c4csc(N)n4)C3SC2)CCCC1` (centres unmarked) [Example 7, (Z)-7-[ -(2-amino-4-thiazolyl)- -(4-oxo-2-azetidinyloxyimino)-acetamido]-3-(1-methyl-1-pyrrolidiniomethyl)-3-cephem-4-carboxylate]: the MIC in assay [1] was 0.39 µg/mL (≈ 0.728 µM); in assay [2] it was 0.05 µg/mL (≈ 0.0934 µM); with Sal. enteritidis 1891 it was 0.05 µg/mL (≈ 0.0934 µM); in assay [3] it was 0.1 µg/mL (≈ 0.187 µM); in assay [4], 0.2 µg/mL (≈ 0.373 µM).
For the compound `Cn1nnnc1SCC1=C(C(=O)O)N2C(=O)C(NC(=O)C(=NOC3CC(=O)N3)c3csc(N)n3)C2SC1` (stereo not drawn) [Example 1, sodium (Z)-7-[α-(4-oxo-2-azptidinyloxyimino)-4-(2-amino-4-thiazolyl)acet-amido]-3-(1-methyl-5-tetrazolyl)thiomethyl-Δ^3-cephem-4-carboxylate], the MIC came out at 0.78 µg/mL in assay [1]; 0.025 µg/mL in assay [2]; 0.025 µg/mL in the assay with Sal. enteritidis 1891; 0.05 µg/mL in assay [3]; 0.2 µg/mL in assay [4].
With `Nc1nc(C(=NOC2CC(=O)N2)C(=O)NC2C(=O)N3C(C(=O)O)=C(CSc4nnnn4CCO)CSC23)cs1` (centres unmarked) [Example 2, sodium (Z)-7[-(2-amino-4-thiazolyl)-∝-(4-oxo-2-azetidingloxyiino)acetamido]-3-[1-(2-gtdrixy-ethyl)-5-tetrazolyl]thiomethyl-^3-cephem-4-carboxcylate], the MIC was found to be 0.1 µg/mL in assay [1]; 0.05 µg/mL in assay [2]; 0.1 µg/mL in the assay on Sal. enteritidis 1891; 0.1 µg/mL in assay [3]; 0.78 µg/mL in assay [4].
In the case of `Nc1ccc[n+](CC2=C(C(=O)[O-])N3C(=O)C(NC(=O)C(=NOC4CC(=O)N4)c4csc(N)n4)C3SC2)c1` (stereo not drawn) [Example 4, (Z)-7-[α(-2-amino-4-thiazolyl) -α-(4-oxo-2-azetidinyloxyimino)acetamido]-3-(3-amino-pyridiniomethyl)-^3-cephem-4-carboxylate], the MIC in assay [1] is 0.78 µg/mL (≈ 1.43 µM); in assay [2], 0.1 µg/mL (≈ 0.184 µM); in the assay on Sal. enteritidis 1891, 0.1 µg/mL (≈ 0.184 µM); in assay [3], 0.1 µg/mL (≈ 0.184 µM); in assay [4], 0.2 µg/mL (≈ 0.367 µM).
